Data reported in patent US20220024921A1, “1,3,4-OXADIAZOLONE COMPOUND AND PHARMACEUTICAL” (NIPPON SHINYAKU CO., LTD., priority 2018, published 2022).
Where a name gives a salt, the structure may show the parent alone.

Key:
[1] = biological target: T1, PIM1 serine/threonine kinase (Homo sapiens, UniProt P11309); experiment: PIM1 serine/threonine kinase inhibitory effect; format: biochemical; settings: PIM1 serine/threonine kinase activity; ATP 40 μM; 30° C., 30 minutes
T1 construct: purchased Carna Bioscience, Inc
T1 sequence (P11309 whole entry): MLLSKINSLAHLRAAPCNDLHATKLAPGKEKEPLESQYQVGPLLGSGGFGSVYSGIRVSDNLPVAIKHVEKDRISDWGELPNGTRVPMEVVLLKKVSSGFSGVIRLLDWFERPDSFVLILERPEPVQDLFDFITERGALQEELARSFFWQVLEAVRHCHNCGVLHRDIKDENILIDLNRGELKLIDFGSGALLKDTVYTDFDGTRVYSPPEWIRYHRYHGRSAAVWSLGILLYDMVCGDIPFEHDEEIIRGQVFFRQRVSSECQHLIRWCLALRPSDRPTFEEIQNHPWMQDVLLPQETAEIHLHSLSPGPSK
Outline: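 Compounds were tested in duplicate from 0.01 to 10000 nM final against PIM1 kinase (0.15 μg/ml). The reaction ran for 30 minutes at 30° C with 40 μM ATP and 0.5 μM biotin-tagged substrate at pH 7.0. Phosphorylation was read by time-resolved FRET (OD665/OD620) after 1 h; IC50 by non-linear fit.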

[2] = biological target: PIM1 transgenic cells (Ba/F3) (Homo sapiens, UniProt P11309); experiment: Proliferation inhibitory effect on PIM1 transgenic cells; format: cell-based, mouse; settings: proliferation inhibition, 72 hours, Cell Counting Kit-8, read-out: PIM1 IC50
Sequence of PIM1 transgenic cells (Ba/F3) (P11309 whole entry, stated change not applied): as the sequence (P11309 whole entry) above
Outline: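 Mouse Ba/F3 pro-B cells were retrovirally transduced with human PIM1 so that their proliferation depends on PIM1. Cells were treated with compound at 1–10000 nM final for 72 h, then read by CCK-8 (OD450−OD650). Inhibition was set against DMSO (0%) and no-cell blank (100%), and IC50 was obtained by two-parameter logistic regression.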

Compound	IC50 [1] [nM]	GI50 [2] [nM]
O=c1[nH]nc(-c2ccc(C(F)(F)F)c(N[C@@H](CF)C3(F)CCNCC3)c2)o1 [Example 209, 5-[3-{[(1S)-2-fluoro-1-(4-fluoropiperidin-4-yl)ethyl]amino}-4-(trifluoromethyl)phenyl]-1,3,4-oxadiazol-2(3H)-one]	5.7	100
C[C@H](Nc1cc(-c2n[nH]c(=O)o2)ccc1C#N)C1CCNCC1 [Example 85, 4-(5-oxo-4,5-dihydro-1,3,4-oxadiazol-2-yl)-2-{[(1S)-1-(piperidin-4-yl)ethyl]amino}benzonitrile hydrochloride]	4.7	610
O=c1[nH]nc(-c2ccc(Cl)c(NCC3CCNCC3)c2)o1 [Example 47, 5-(4-chloro-3-{[(piperidin-4-yl)methyl]amino}phenyl)-1,3,4-oxadiazol-2(3H)-one hydrochloride]	7.6	820
O=c1[nH]nc(-c2ccc(C(F)(F)F)c(NCC3CCNCC3)c2)o1 [Example 48, 5-[3-{[(piperidin-4-yl)methyl]amino}-4-(trifluoromethyl)phenyl]-1,3,4-oxadiazol-2(3H)-one hydrochloride]	4.4	1200
NCC(O)C1CCN(c2cc(-c3n[nH]c(=O)o3)ccc2C(F)(F)F)CC1 (stereo not shown) [Example 14, 5-{3-[4-(2-amino-1-hydroxyethyl)piperidin-1-yl]-4-(trifluoromethyl)phenyl}-1,3,4-oxadiazol-2(3H)-one hydrochloride]	12	1300
O=c1[nH]nc(-c2ccc(C(F)(F)F)c(CCC3CCNCC3)c2)o1 [Example 26, 5-{3-[2-(piperidin-4-yl)ethyl]-4-(trifluoromethyl)phenyl}-1,3,4-oxadiazol-2(3H)-one hydrochloride]	12	910
C[C@H](Nc1cc(-c2n[nH]c(=O)o2)ccc1C(F)F)C1CCNCC1 [Example 90, 5-[4-(difluoromethyl)-3-{[(1S)-1-(piperidin-4-yl)ethyl]amino}phenyl]-1,3,4-oxadiazol-2(3H)-one]	21	3800
CC1CN(C(C)C2CCC(N)CC2)c2cc(-c3n[nH]c(=O)o3)cc(F)c2O1 [Example 252, 5-[(2S)-4-{(1S)-1-[(1r,4S)-4-aminocyclohexyl]ethyl}-8-fluoro-2-methyl-3,4-dihydro-2H-1,4-benzoxazin-6-yl]-1,3,4-oxadiazol-2(3H)-one hydrochloride]	6.6	210
NCCCCCCNc1cc(-c2n[nH]c(=O)o2)ccc1C(F)(F)F [Example 4, 5-{3-[(6-aminohexyl)amino]-4-(trifluoromethyl)phenyl}-1,3,4-oxadiazol-2(3H)-one]	50	3000
COc1c(Cl)cc(-c2n[nH]c(=O)o2)cc1N[C@@H](C)C1CCNCC1 [Example 104, 5-(3-chloro-4-methoxy-5-{[(1S)-1-(piperidin-4-yl)ethyl]amino}phenyl)-1,3,4-oxadiazol-2(3H)-one hydrochloride]	4	110
C[C@H](Nc1cc(-c2n[nH]c(=O)o2)ccc1Cl)C1CCNCC1 [Example 77, 5-(4-chloro-3-{[(1S)-1-(piperidin-4-yl)ethyl]amino}phenyl)-1,3,4-oxadiazol-2(3H)-one dihydrochloride]	5.8	180
C[C@H](Nc1cc(-c2n[nH]c(=O)o2)ccc1C(F)(F)F)[C@H]1CCC[C@@H](N)C1 [Example 194, 5-[3-({(1S)-1-[(1S,3R)-3-aminocyclohexyl]ethyl}amino)-4-(trifluoromethyl)phenyl]-1,3,4-oxadiazol-2(3H)-one hydrochloride]	12	280
CC(C)c1c(F)cc(-c2n[nH]c(=O)o2)cc1N[C@@H](C)[C@H]1CC[C@H](N)CC1 [Example 233, 5-[3-({(1S)-1-[(1r,4S)-4-aminocyclohexyl]ethyl}amino)-5-fluoro-4-(propan-2-yl)phenyl]-1,3,4-oxadiazol-2(3H)-one hydrochloride]	5.5	44
C[C@@H]1CNCC[C@@H]1[C@H](C)N1CCC(=O)c2c(F)cc(-c3n[nH]c(=O)o3)cc21 [Example 245, 5-fluoro-1-{(1S)-1-[(3S,4S)-3-methylpiperidin-4-yl]ethyl}-7-(5-oxo-4,5-dihydro-1,3,4-oxadiazol-2-yl)-2,3-dihydroquinolin-4(1H)-one hydrochloride]	4.2	3200
O=c1[nH]nc(-c2ccc(C(F)(F)F)c(NC[C@H]3CCCNC3)c2)o1 [Example 53, 5-[3-({[(3S)-piperidin-3-yl]methyl}amino)-4-(trifluoromethyl)phenyl]-1,3,4-oxadiazol-2(3H)-one hydrochloride]	15	1600
Cc1cc(-c2n[nH]c(=O)o2)cc(N[C@@H](C)C2CCNCC2)c1Cl [Example 84, 5-(4-chloro-3-methyl-5-{[(1S)-1-(piperidin-4-yl)ethyl]amino}phenyl)-1,3,4-oxadiazol-2(3H)-one dihydrochloride]	1.1	36

The remaining compounds from weak to strong by IC50 [1], led by results:

IC50 [1] [nM]	GI50 [2] [nM]	Compound
65	880	CC(=O)N[C@H]1C[C@@H](CNc2cc(-c3n[nH]c(=O)o3)ccc2C(F)(F)F)C1(C)C [Example 184, N-[(1S,3R)-2,2-dimethyl-3-{[5-(5-oxo-4,5-dihydro-1,3,4-oxadiazol-2-yl)-2-(trifluoromethyl)anilino]methyl}cyclobutyl]acetamide]
27	2200	NCCc1ccc(-c2cc(-c3n[nH]c(=O)o3)ccc2C(F)(F)F)cc1 [Example 22, 5-[4′-(2-aminoethyl)-6-(trifluoromethyl)[1,1′-biphenyl]-3-yl]-1,3,4-oxadiazol-2(3H)-one hydrochloride]
19	280	CN(C[C@H]1CC[C@H](N)CC1)c1cc(-c2n[nH]c(=O)o2)ccc1C(F)(F)F [Example 130, 5-{3-[{[(1r,4r)-4-aminocyclohexyl]methyl}(methyl)amino]-4-(trifluoromethyl)phenyl}-1,3,4-oxadiazol-2(3H)-one hydrochloride]
13	1200	O=c1[nH]nc(-c2ccc(C(F)(F)F)c(NC[C@@H]3CCCNC3)c2)o1 [Example 54, 5-[3-({[(3R)-piperidin-3-yl]methyl}amino)-4-(trifluoromethyl)phenyl]-1,3,4-oxadiazol-2(3H)-one hydrochloride]
11	160	C[C@H](Nc1cc(-c2n[nH]c(=O)o2)ccc1C(F)(F)F)[C@@H]1CCC[C@H](N)C1 [Example 191, 5-[3-({(1S)-1-[(1R,3S)-3-aminocyclohexyl]ethyl}amino)-4-(trifluoromethyl)phenyl]-1,3,4-oxadiazol-2(3H)-one hydrochloride]
9.2	190	NC1CC2(C1)CC(Nc1cc(-c3n[nH]c(=O)o3)ccc1C(F)(F)F)C2 (stereo not shown) [Example 43, 5-{3-[(6-aminospiro[3.3]heptan-2-yl)amino]-4-(trifluoromethyl)phenyl}-1,3,4-oxadiazol-2(3H)-one hydrochloride]
8.5	130	CN[C@H]1C[C@@H]([C@H](C)Nc2cc(-c3n[nH]c(=O)o3)cc(F)c2OC(F)(F)F)C1 [Example 208, 5-[3-fluoro-5-({(1S)-1-[(1s,3R)-3-(methylamino)cyclobutyl]ethyl}amino)-4-(trifluoromethoxy)phenyl]-1,3,4-oxadiazol-2(3H)-one]
3.7	45	C[C@H](Nc1cc(-c2n[nH]c(=O)o2)ccc1Cl)[C@H]1CC[C@H](N)CC1 [Example 148, 5-[3-({(1S)-1-[(1r,4S)-4-aminocyclohexyl]ethyl}amino)-4-chlorophenyl]-1,3,4-oxadiazol-2(3H)-one hydrochloride]
3.5	57	CN[C@H]1CC[C@H]([C@H](C)Nc2cc(-c3n[nH]c(=O)o3)cc(F)c2OC(F)(F)F)CC1 [Example 204, 5-[3-fluoro-5-({(1S)-1-[(1r,4S)-4-(methylamino)cyclohexyl]ethyl}amino)-4-(trifluoromethoxy)phenyl]-1,3,4-oxadiazol-2(3H)-one hydrochloride]
3.3	22	C[C@H](Nc1cc(-c2n[nH]c(=O)o2)cc(F)c1C1CC1)[C@H]1CC[C@H](N)CC1 [Example 230, 5-[3-({(1S)-1-[(1r,4S)-4-aminocyclohexyl]ethyl}amino)-4-cyclopropyl-5-fluorophenyl]-1,3,4-oxadiazol-2(3H)-one]
3.1	94	COc1c(F)cc(-c2n[nH]c(=O)o2)cc1N[C@@H](C)[C@H]1CC[C@H](N)CC1 [Example 167, 5-[3-({(1S)-1-[(1r,4S)-4-aminocyclohexyl]ethyl}amino)-5-fluoro-4-methoxyphenyl]-1,3,4-oxadiazol-2(3H)-one hydrochloride]
2.6	50	C[C@H](Nc1cc(-c2n[nH]c(=O)o2)cc(F)c1OC(F)(F)F)C1(C)CCNCC1 [Example 207, 5-[3-fluoro-5-{[(1S)-1-(4-methylpiperidin-4-yl)ethyl]amino}-4-(trifluoromethoxy)phenyl]-1,3,4-oxadiazol-2(3H)-one]
2	24	O=c1[nH]nc(-c2cc(F)c(C(F)(F)F)c(N[C@@H](C(F)F)C3(F)CCNCC3)c2)o1 [Example 163, 5-[3-{[(1R)-2,2-difluoro-1-(4-fluoropiperidin-4-yl)ethyl]amino}-5-fluoro-4-(trifluoromethyl)phenyl]-1,3,4-oxadiazol-2(3H)-one hydrochloride]
